According to patent US20190055212A1, “HISTONE DEMETHYLASE INHIBITORS” (priority 2016, published 2019):

target: KDM5B enzyme (Homo sapiens, UniProt Q9UGL1); assay: KDM5B HTRF (TR-FRET) demethylase inhibition assay; type: biochemical; conditions: 1.2 nM KDM5B, 30 nM Biotin-H3K4Me3 1-21 substrate, 10 point dose-response
Method: Ten point dose-response curves for compounds shown in Table 1 were determined using a homogeneous time resolved fluorescence (HTRF) assay (Reaction Biology Corp, Malvern, Pa.). This assay combines fluorescence resonance energy transfer (FRET) with time resolve (TR) measurements (TR-FRET). The KDM5B α-ketoglutarate-dependent demethylase activity is calculated by measuring demethylation of a biotin labeled histone tri-methylated H3K4 substrate using an europium-cryptate (Eu)-labeled antibody donor specific for dimethylated histone H3K4 and a Streptavidin-XL665 acceptor that binds to the biotin group of substrate, and detecting FRET by exciting the reaction mixture at 320 nm and reading dual emissions at 615 nm and 665 nm.
Briefly, compounds disclosed herein were solubilized in DMSO and a series of 10, three-fold serial dilutions were made for each compound in 100% DMSO. The initial starting concentration for the serial dilutions of each compound was 10 μM or 100 μM. Control samples lacking compound, KDM5B enzyme or various reaction components also were prepared and processed in parallel with compound test samples.
An aliquot of each serial dilution of test compound was added to a 384 well plate (Corning Cat #3572) containing 1.2 nM KDM5B enzyme suspended in 50 mM Hepes, pH7.5, 50 mM NaCl, 0.01% Tween 20, 0.1% BSA, and 1% DMSO (final concentrations) in a 10 microliter reaction volume using a LABCYTE ECHO liquid handler. The samples were mixed, subjected to centrifugation and the plate was pre-incubated at room temperature for 15 min, to which 30 nM Biotin-H3K4Me3 1-21 substrate (Anaspec Cat #64192), 20 μM […] and 20 μM α-ketoglutarate co-factors, and 100 μM Ascorbate were added to initiate the enzymatic reaction. The reaction mixture was incubated at room temperature for 45 minutes. A 10 μl aliquot of a detection mixture of Eu-labeled anti-histone H3K4Me2 antibody (CisBIO Cat #610AXLB) and Streptavidin-XL665 (CisBIO Cat #610 SAXLB) in 200 mM potassium fluoride and 10 mM EDTA was added and kinetic measurements were read at 5 minute intervals for a period of 30 minutes using an Envision Multiplate Reader (PerkinElmer Model 2102; excitation at 320 nm and emmission reads at 615 nm and 665 nm). The IC50 value for each compound was determined from the 665/615 ratio obtained for each 10 point dose-response curve using GraphPad Prism 4 software with a sigmodial dose response. Key: “A”≤100 nM; “B”>100 nM-≤500 nM; “C”>500 nM and N/D is not determined.

KDM5B enzyme, sequence (Q9UGL1 whole entry): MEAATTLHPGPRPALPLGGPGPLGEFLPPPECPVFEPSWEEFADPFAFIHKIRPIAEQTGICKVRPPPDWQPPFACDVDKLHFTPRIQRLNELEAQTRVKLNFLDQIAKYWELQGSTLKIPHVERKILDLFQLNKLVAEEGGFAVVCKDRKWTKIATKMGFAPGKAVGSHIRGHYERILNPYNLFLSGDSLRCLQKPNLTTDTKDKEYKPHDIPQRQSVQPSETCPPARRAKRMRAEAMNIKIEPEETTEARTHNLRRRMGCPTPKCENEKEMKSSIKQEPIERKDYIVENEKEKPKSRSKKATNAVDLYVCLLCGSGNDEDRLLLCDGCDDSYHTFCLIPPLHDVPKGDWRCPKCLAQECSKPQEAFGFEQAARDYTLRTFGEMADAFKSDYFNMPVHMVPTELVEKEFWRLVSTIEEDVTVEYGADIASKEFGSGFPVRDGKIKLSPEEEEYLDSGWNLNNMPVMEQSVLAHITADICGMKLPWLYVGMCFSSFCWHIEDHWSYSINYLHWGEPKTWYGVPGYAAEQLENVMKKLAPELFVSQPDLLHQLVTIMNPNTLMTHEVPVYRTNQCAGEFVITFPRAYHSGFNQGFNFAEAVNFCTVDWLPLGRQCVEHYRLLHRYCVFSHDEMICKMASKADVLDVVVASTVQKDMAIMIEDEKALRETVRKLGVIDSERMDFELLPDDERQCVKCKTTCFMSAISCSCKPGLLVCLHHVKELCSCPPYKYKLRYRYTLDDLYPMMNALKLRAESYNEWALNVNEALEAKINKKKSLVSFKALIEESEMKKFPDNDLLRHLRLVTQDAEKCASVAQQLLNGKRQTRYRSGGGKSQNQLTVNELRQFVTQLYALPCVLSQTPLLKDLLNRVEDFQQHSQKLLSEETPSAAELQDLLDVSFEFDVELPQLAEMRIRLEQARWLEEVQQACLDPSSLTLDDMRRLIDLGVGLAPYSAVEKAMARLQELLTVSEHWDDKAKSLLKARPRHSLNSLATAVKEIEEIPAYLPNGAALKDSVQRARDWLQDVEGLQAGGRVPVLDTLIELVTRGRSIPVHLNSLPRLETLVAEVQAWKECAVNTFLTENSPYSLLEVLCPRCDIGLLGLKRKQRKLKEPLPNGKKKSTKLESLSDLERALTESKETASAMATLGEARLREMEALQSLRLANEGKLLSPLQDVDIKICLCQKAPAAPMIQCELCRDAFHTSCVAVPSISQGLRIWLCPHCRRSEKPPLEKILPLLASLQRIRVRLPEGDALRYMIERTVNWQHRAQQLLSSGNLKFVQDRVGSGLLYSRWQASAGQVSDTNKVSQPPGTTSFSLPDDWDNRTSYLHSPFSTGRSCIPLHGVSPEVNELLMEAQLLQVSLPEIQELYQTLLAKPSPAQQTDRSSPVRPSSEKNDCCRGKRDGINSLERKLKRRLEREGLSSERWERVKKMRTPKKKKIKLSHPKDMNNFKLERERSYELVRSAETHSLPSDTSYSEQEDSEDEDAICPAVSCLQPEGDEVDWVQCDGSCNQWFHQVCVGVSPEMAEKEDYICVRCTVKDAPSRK

O=C(O)c1ccnc(-c2nc3ccccc3n2Cc2ccc(Cl)cc2)c1 [Example 1] and COc1ccc(Cn2c(-c3cc(C(=O)O)ccn3)nc3ccccc32)cc1 [Example 2] cannot be ordered by IC50: 100 to 500 nM for the first, ≤ 100 nM for the second.

First: COc1cc(Cl)ccc1CCn1ccnc1-c1cc(C(=O)O)ccn1 [Example 6]
Second: COc1cc(C)ccc1CCn1ccnc1-c1cc(C(=O)O)ccn1 [Example 5]
The IC50 of the first is lower: 100 to 500 nM for the first, > 500 nM for the second. The first is the more potent here.

CN1CCN(Cc2cnc(-c3cc(C(=O)O)ccn3)n2CCc2ccc(F)cc2)C(c2ccccc2)C1 (stereo not drawn) [Example 72] and O=C(O)c1ccnc(-c2ncc(CN3CCCN(c4ccccc4)CC3)n2CCc2ccc(F)cc2)c1 [Example 82] cannot be ordered by IC50: ≤ 100 nM for the first, ≤ 100 nM for the second.

First: O=C(O)c1ccnc(-c2nccn2Cc2ccc(Cl)cc2)c1 [Example 10]
Second: O=C(O)c1ccnc(-c2nccn2CCc2ccc(Cl)cc2)c1 [Example 8]
The IC50 of the first is lower: 100 to 500 nM for the first, > 500 nM for the second. The first is the more potent here.

O=C(O)c1ccnc(-c2ncc(CN(CCO)Cc3ccccc3)n2CCc2ccc(F)cc2)c1 [Example 70] and CN(Cc1ccccn1)Cc1cnc(-c2cc(C(=O)O)ccn2)n1CCc1ccc(F)cc1 [Example 62] fall in the same range of IC50: 100 to 500 nM for the first, 100 to 500 nM for the second.

O=C(O)c1ccnc(-c2ncc(CN3CCN(CCCOc4ccccc4)CC3)n2CCc2ccc(F)cc2)c1 [Example 76] and O=C(O)c1ccnc(-c2ncc(CN3CCN(Cc4ccc(C(F)(F)F)cc4)CC3)n2CCc2ccc(F)cc2)c1 [Example 78] cannot be ordered by IC50: ≤ 100 nM for the first, ≤ 100 nM for the second.

Compared with CCc1ccc(N(C)c2ccc3c(c2)OCCC3Cn2ccnc2-c2cc(C(=O)O)ccn2)cc1 (stereo not drawn) [Example 42], CCc1ccc(N(C)c2ccc3c(c2)OCCC3Cn2c(-c3cc(C(=O)O)ccn3)nc3ccccc32)cc1 (stereo not drawn) [Example 88] is higher in IC50: 100 to 500 nM for the first, > 500 nM for the second.

O=C(O)c1ccnc(-c2ncc(-c3ccccn3)n2Cc2ccc(Oc3ccccc3)cc2)c1 [Example 34] and O=C(O)c1ccnc(-c2ncc(-c3ccccn3)n2CCc2ccc(Cl)cc2)c1 [Example 31] fall in the same range of IC50: 100 to 500 nM for the first, 100 to 500 nM for the second.

COc1cc(CN2CCC(NCCc3ccccc3)CC2)ccc1Cn1ccnc1-c1cc(C(=O)O)ccn1 [Example 54] and CN(Cc1cnc(-c2cc(C(=O)O)ccn2)n1CCc1ccc(F)cc1)C1CCN(Cc2ccccc2)CC1 [Example 68] cannot be ordered by IC50: 100 to 500 nM for the first, ≤ 100 nM for the second.

Compared with Cn1c(-c2ccccn2)cnc1-c1cc(C(=O)O)ccn1 [Example 12], Cn1cc(-c2ccccn2)nc1-c1cc(C(=O)O)ccn1 [Example 13] is higher in IC50: ≤ 100 nM for the first, > 500 nM for the second. The first is the more potent here.

COc1ccc(-n2c(-c3cc(C(=O)O)ccn3)nc3ccccc32)cc1 [Example 4] and COc1ccc(CCn2c(-c3cc(C(=O)O)ccn3)nc3ccccc32)cc1 [Example 3] cannot be ordered by IC50: ≤ 100 nM for the first, 100 to 500 nM for the second.

Cn1c(CN2CCN(Cc3ccc(C(F)(F)F)cc3)CC2)cnc1-c1cc(C(=O)O)ccn1 [Example 107] and CN1CCN(Cc2cnc(-c3cc(C(=O)O)ccn3)n2C)C(c2ccccc2)C1 (stereo not drawn) [Example 101] cannot be ordered by IC50: ≤ 100 nM for the first, ≤ 100 nM for the second.

O=C(O)c1ccnc(-c2ncc(CO)n2CCc2ccc(Cl)cc2)c1 [Example 14] and CNC(=O)c1cnc(-c2cc(C(=O)O)ccn2)n1CCc1ccc(Cl)cc1 [Example 15] cannot be ordered by IC50: 100 to 500 nM for the first, ≤ 100 nM for the second.

COc1ccc(N(C)c2ccc(Cn3ccnc3-c3cc(C(=O)O)ccn3)cc2)cc1 [Example 36] and COc1ccc(N(C)c2ccc3c(c2)OCCC3Cn2c(-c3cc(C(=O)O)ccn3)nc3ccccc32)cc1 (stereo not drawn) [Example 90] cannot be ordered by IC50: > 500 nM for the first, > 500 nM for the second.

O=C(O)c1ccnc(-c2nc3ccccc3n2CC2CCOc3ccccc32)c1 (stereo not drawn) [Example 29] and N#Cc1ccccc1Cn1ccnc1-c1cc(C(=O)O)ccn1 [Example 9] cannot be ordered by IC50: ≤ 100 nM for the first, 100 to 500 nM for the second.

O=C(O)c1ccnc(-c2ncc(CN3CCC(OC4CCCCC4)CC3)n2CCc2ccc(F)cc2)c1 [Example 74] and O=C(O)c1ccnc(-c2ncc(CCN3CCC(c4cc(Cl)cc(Cl)c4)CC3)n2CCc2ccc(F)cc2)c1 [Example 51] cannot be ordered by IC50: ≤ 100 nM for the first, ≤ 100 nM for the second.

CN(Cc1ccc(N2CCOCC2)cc1)Cc1cnc(-c2cc(C(=O)O)ccn2)n1CCc1ccc(F)cc1 [Example 66] and CN(CCc1cnc(-c2cc(C(=O)O)ccn2)n1CCc1ccc(F)cc1)Cc1ccc(Cl)cc1 [Example 47] cannot be ordered by IC50: 100 to 500 nM for the first, ≤ 100 nM for the second.

Cc1cc(Cl)ccc1CCn1ccnc1-c1cc(C(=O)O)ccn1 [Example 7] and Cc1ccc(-n2ccnc2-c2cc(C(=O)O)ccn2)cc1 [Example 16] fall in the same range of IC50: 100 to 500 nM for the first, 100 to 500 nM for the second.

O=C(O)c1ccnc(-c2ncc(CN3CCc4c([nH]c5ccccc45)C3)n2CCc2ccc(F)cc2)c1 [Example 86] and CN(Cc1ccc(F)cc1)Cc1ccc2nc(-c3cc(C(=O)O)ccn3)n(CCc3ccc(F)cc3)c2c1 [Example 28] cannot be ordered by IC50: ≤ 100 nM for the first, 100 to 500 nM for the second.

In the case of CCN1CCN(c2ccc(Cn3ccnc3-c3cc(C(=O)O)ccn3)c3c2CCCC3)CC1 [Example 11], the IC50 is reported as > 500 nM.
